Measurements: patent US5670514A, “Compositions for inhibiting bone loss” (priority 1996, dated 1997)

What follows are compounds tested against T1, Human Type I Steroid 5α-Reductase (Homo sapiens, UniProt P18405) (assay: Human Type I Steroid 5α-Reductase homogenate assay (human scalp enzyme; conversion of [3H]-testosterone to [3H]-5α-dihydrotestosterone and other 5α-reduced metabolites)). Conditions: 0.3 μM; compared to control reaction mixtures; 50 nM [3H]-testosterone, pH 7.5, 25°, 180 min.
T1 construct: Preparation of Type I 5α-Reductase from Human Scalp; from tissue; host or cells: human scalp skin (punch biopsies from hair transplant graft recipient sites), 100,000 x g pellet of homogenate
T1 sequence (P18405 1-259): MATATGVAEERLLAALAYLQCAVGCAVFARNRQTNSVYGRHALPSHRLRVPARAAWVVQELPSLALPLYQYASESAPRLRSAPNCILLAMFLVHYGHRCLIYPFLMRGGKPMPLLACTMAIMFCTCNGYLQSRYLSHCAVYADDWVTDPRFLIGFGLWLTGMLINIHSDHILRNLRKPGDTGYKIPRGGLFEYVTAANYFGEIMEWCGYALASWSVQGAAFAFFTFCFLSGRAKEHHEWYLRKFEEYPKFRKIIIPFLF
Type: biochemical
Source text: Methodology of Human Type I Steroid 5α-Reductase Assays
The subcutaneous tissue was cut away and discarded. The skin was frozen with liquid nitrogen and pulverized to powder. […] The homogenization procedure consisted of four 15 second pulses. Connective tissue was cleared from the probe with forceps between pulses. […] The pellet was resuspended by homogenization with a Dounce homogenizer using the same buffer solution. An aliquot was taken for protein determination by the Lowry method, Lowry, et al., Protein Measurement with the Folin Phenol Reagent, J. Biol. Chem., 193, 265-75 (1951). Aliquots of the enzyme preparation were stored at -80° until use.
The reaction was initiated by the addition of 0.5 mg of Type I 5α-reductase. The reaction mixture was incubated at 25° for 180 min, and terminated by the addition of 1 mL ice-cold stopping solution. […] The samples were prepared for high performance liquid chromatography by solid phase extraction. […] The reaction mixtures were then applied to the columns. The columns were subsequently washed with 5 mL of acetone:water (1:4), followed by 0.3 mL of methanol. The samples were then eluted with 3 mL of methanol and collected in 20 mL scintillation vials. Three mL of water was then added to each scintillation vial. […] The column temperature was maintained at 35° and the flow rate was 1.5 mL/min.

percent inhibition of Type I 5AR [%] | Compound
24 | CN1C(=O)CC[C@]2(C)c3ccc(-c4cccc(NC(=O)C5CCN(Cc6ccccc6)CC5)c4)cc3CC[C@@H]12 [Example 209, (+)-(4aR)-(10bR)-4-methyl-8-(3-[1-benzyl-4-piperidinyl-carboxamido]phenyl)-10b-methyl-1,2,3,4,4a,5,6,10b-octahydrobenzo[f]quinolin-3-one]
90 | (+)-(4aR)-(10bR)-4-methyl-8-benzyloxycarbonyl-10b-methyl-1,2,3,4,4a,5,6,10b-octahydrobenzo[f]quinolin-3-one [Example 144]
13 | CN1C(=O)CC[C@]2(C)c3ccc(-c4cccc(NC(=O)C(C)(C)C)c4)cc3CC[C@@H]12 [Example 34, (+)-(4aR)-(10bR)-4-methyl-8-(3-t-butylcarboxamidophenyl)-10b-methyl-1,2,3,4,4a,5,6,10b-octahydrobenzo[f]quinolin-3-one]
86 | CN1C(=O)CC[C@]2(C)c3ccc(-c4ccc(-c5ccc(NC(=O)C(C)(C)C)s5)cc4)cc3CC[C@@H]12 [Example 222, (+)-(4aR)-(10bR)-4-methyl-8-(4-[(2-t-butylcarbonylamino]-5-thienyl]phenyl)-10b-methyl-1,2,3,4,4a,5,6,10b-octahydro-benzo[f]quinolin-3-one]
